A word on the pEC50: it is the negative decadic logarithm of the EC50, by convention in mol/L. The term EC90 denotes the concentration needed for an effect of 90%. As usually defined, the bioavailability is the share of a dose that reaches the circulation, judged against a reference dose that is usually intravenous. One may read the half-life as how long it takes for the measured level to halve. A higher half-life goes with slow loss. In general, pIC50 refers to −log10 of the IC50, conventionally taken in molar units.

pEC50, pIC50: −log10 of the molar value. Read-outs that look alike come from different tables or passages of the source. Numbered stars: 1 amine (or outer) side, 2 acyl side, 3 side chain; on linkers, the order of the positions; unused ones are H or OH. Bridge positions count the residues as written; N and C are the ends. Square brackets hold non-standard residues; d marks the D form. Peptide text beside a SMILES is read from it. I, II: the chains in the order shown. Actinocin(9to1) = Cc1c2oc3c(C)ccc(C(=O)[*:1])c3nc-2c(C(=O)[*:2])c(N)c1=O; NMeV = CN[C@H](C(=O)O)C(C)C; Sar = CNCC(=O)O

Experimental findings from article PMC4700930 (Nature, 2015) are described below.

Series [1] deals with GFP-transfected P. berghei ANKA strain. To be noted: for Activity % / Survival days: oral single dose.
Series [2] has as its system P. berghei liver stages. Description: Plasmodium berghei luciferase liver stage assay.
Series [3] deals with Plasmodium falciparum strain 3D7. Description: P. falciparum. The format is cell-based.
Series [4] deals with P. falciparum strains K1, W2, 7G8, TM90C2A, D6, V1/S, NF54. As to the kind of experiment: P. falciparum. The format is cell-based, Plasmodium falciparum. To be noted: compared with 3D7.
Series [5] has as its system P. falciparum clinical isolates. Description: Ex vivo P. falciparum field isolates assay. It counts as cell-based. To be noted: Plasmodium falciparum.
The subject of series [6] is P. vivax clinical isolates. Description: Ex vivo P. vivax field isolates assay. It counts as cell-based, Plasmodium vivax. The conditions noted are these: read-out: median EC50, P. vivax clinical isolates, isolates from Papua (Indonesia).
The subject of series [7] is MRC5 (human foetal lung fibroblasts). Description: Cytotoxicity against mammalian cells, resazurin assay, MRC5. The format is cell-based. Background: Alamar Blue is a resazurin reagent that responds to reducing activity.
Series [8] relates to P. falciparum NF54. As to the kind of experiment: Stage specificity studies in P. falciparum, synchronised cultures. The format is cell-based, Plasmodium falciparum. To be noted: 4nM for 24 h.
For series [9], the system named is P. falciparum Pf3D7^0087/N9. It counts as in vivo, Plasmodium falciparum.
The test system of series [10] is liver schizont forms of P. yoelii. Description: P. yoelii liver stage assay. It counts as cell-based. To be noted: Plasmodium yoelii, read-out: EC50, P. yoelii liver stage, liver schizont forms.
The test system of series [11] is P. berghei (PbGFPCON507). The format is in vivo, Plasmodium berghei.
The nature of series [12]: Plasma protein binding, equilibrium dialysis. The format is in vitro ADME, mouse, rat, human. For orientation: In equilibrium dialysis only unbound substance equilibrates across the membrane.
A short description of series [13]: Mouse pharmacokinetics. The format is in vivo. The conditions noted are these: Intravenous 1 mg/kg.
A short description of series [14]: Rat pharmacokinetics. The format is in vivo.
A short description of series [15]: Dog pharmacokinetics. The format is in vivo. The conditions noted are these: Intravenous 1 mg/kg.
Series [16] is described as follows: Mutagenicity.
In series [17] the test system is DDD107498-resistant P. falciparum lines. As to the kind of experiment: SYBR Green growth assay on DDD107498-selected resistant lines. It counts as cell-based. To be noted: Plasmodium falciparum.
For series [18], the system named is DNA/RNA synthesis in P. falciparum 3D7. Description: Metabolic labelling with [3H]-hypoxanthine. The conditions noted are these: sensitive and drug-resistant parasites. The format is cell-based, Plasmodium falciparum.
The subject of series [19] is P. falciparum. Description: Parasite Reduction Ratio.
For series [20], the system named is P. berghei ookinetes. As to the kind of experiment: P. berghei ookinete development assay. To be noted: Plasmodium berghei, read-out: EC50, P. berghei ookinete.
In series [21] the test system is luciferase-expressing P. berghei sporozoites. To be noted: blood sampling from the mice.
Where [22] appears, read: 30 mg/kg, murine P. berghei model.
The mark [23] stands for this setting: male, Sprague Dawley, rat, blood, po, 5 mg/kg.

With `CO[C@H]1O[C@@H]2O[C@@]3(C)CC[C@H]4[C@H](C)CC[C@@H]([C@H]1C)[C@@]24OO3` [Artemether], the Activity % in series [1] (3 mg/kg) was 59%; in series [1] (10 mg/kg) it was 89%; in series [1] (setting [22]), 98%. The figures for the Survival days in [1] (3 mg/kg), in series [1] (10 mg/kg) and in [1] (30 mg/kg) were 6 days, 6 days and 7 days, respectively.
On to `C[C@H]1[C@H](OC(=O)CCC(=O)O)O[C@@H]2O[C@@]3(C)CC[C@H]4[C@H](C)CC[C@@H]1[C@@]24OO3` [Artesunate], for which the Activity % in series [1] (3 mg/kg) is under 40%; in series [1] (10 mg/kg) it was 75%. For the same compound, the figures for the Survival days in series [1] (3 mg/kg), in series [1] (10 mg/kg) and in [1] (30 mg/kg) were 6 days, 6 days and 9 days, respectively.
For `O=C1C(O)=C([C@H]2CC[C@H](c3ccc(Cl)cc3)CC2)C(=O)c2ccccc21` [Atovaquone, reference compound], in series [2] (read-out: EC50, P. berghei liver stage, continuous treatment), the pEC50 is 9.52.
In the case of `CCN(CC)CCCC(C)Nc1ccnc2cc(Cl)ccc12` (stereo not drawn) [Chloroquine], the Survival days was determined as 7 days in [1] (3 mg/kg), 7 days in [1] (10 mg/kg) and 10 days in series [1] (30 mg/kg).
`O=C(NCCN1CCCC1)c1cc(-c2ccc(CN3CCOCC3)cc2)nc2ccc(F)cc12` [DDD107498]: in [3] (P. falciparum 3D7, n=39), the “EC99 against 3D7 parasites” value is recorded as 5.9 nM. For the same compound, the pEC50 in [3] (Plasmodium falciparum, 3D7, read-out: EC50 against 3D7 parasites) was 9.00; in [5] (read-out: Range of EC50, P. falciparum clinical isolates), 8.48 to 9.54; in [5] (read-out: median EC50, P. falciparum clinical isolates), 9.09; in [6], 9.29; in series [10], about 9.00; in [20], 8.30. Besides, in [2] (read-out: EC50, P. berghei liver stage, liver schizont forms), the negative logarithm of the EC50 (pEC50) is about 9.00. For the same compound, the EC90 in series [3] (Plasmodium falciparum, 3D7, read-out: EC90 against 3D7 parasites) is 2.4 nM. The “activity against drug-resistant strains” value in series [4] is “almost equally active”. In [7], the “selectivity, human cells (MRC5 and Hep-G2) over parasite” value is listed as > 20,000 fold. Further, in series [8], the “effect from the ring stage” value was “formation of abnormal trophozoites”. In addition, the “reduction in parasites, from the schizont stage” value in [8] stood at 98%. Further, in [8], the “reduction in parasites, from the trophozoite stage” value is listed as 50%. In series [9] (asexual blood stage infections, blood of infected SCID mice), the “minimum parasiticidal concentration (MPC)” value was 10 to 13 ng/mL. In addition, in series [9] (dosed orally daily for 4 days, SCID mice, P. falciparum), the “ED90 on day 7 after infection” value is given as 0.95 mg/kg per day. Besides, in series [11] (3 mg/kg oral), the “TB effect- sporozoite intensity” value was 93.8%. Also, in series [11] (3 mg/kg oral), the “TB effect- sporozoite prevalence” value was 88.6%. For the same compound, in series [11] (3 mg/kg oral, day 10), the “reduction in infected mosquitoes (TB effect- oocyst prevalence)” value was 90.7%. Besides, the “reduction in oocysts per midgut (TB effect- oocyst intensity)” value in series [11] (3 mg/kg oral, day 10) is recorded as 98.8%. In series [11] (3 mg/kg oral, multiple mosquito biting rates), the “Inhibition in infection of naïve mice” value came to 89.5%. For the same compound, in series [11] (chain binomial model, reduction of R0, 100% coverage), the Effect size was determined as 90.5%. Further, the protein binding entry in series [12] is reported as “low protein binding”. Further, the CI amounted to 12 mL/min/g in series [13]; 18 mL/min/g in [14] (Rat, Intravenous 1 mg/kg); 30 mL/min/g in series [15]. In series [14] (setting [23]), this compound returned a bioavailability of 84%. Moreover, in series [14] (setting [23]), the half-life was 18 h. The mutagenicity entry in series [16] is listed as “non-mutagenic”. Moreover, the negative-log IC50 (pIC50) in series [17] (DD2, read-out: DDD107498 IC50, WT Dd2) was 9.85; in series [17] (read-out: DDD107498 IC50, high-level resistant line EF2-L775F), 6.18; in series [17] (read-out: DDD107498 IC50, high-level resistant line EF2-Y186N), 5.51; in [17] (read-out: DDD107498 IC50, low-level resistant line EF2-E134D), 8.24. The “effect on DNA/RNA biosynthesis ([3H]-hypoxanthine incorporation)” value (shortened to “effect on DNA/RNA biosynthesis”) in series [18] was “minimal effects”. In addition, the “lag before killing (effects reversible following wash-out)” value in series [19] (10 × EC50) lay in the range of 24 to 48 h. Also, the “concentration sufficient to produce maximal killing effects” value in series [19] (tested at 0.1, 0.3, 1, 3 and 10 × EC50) was at least 1 × EC50. For the same compound, the Activity % in series [1] (3 mg/kg) is 99%; in series [1] (10 mg/kg) it was 99.0%; in series [1] (setting [22]), 99.1%. Further, the results for the Survival days in series [1] (3 mg/kg), in series [1] (10 mg/kg) and in series [1] (30 mg/kg) were 9 days, 14 days and 23 days, respectively. The “ED90 (90% reduction in parasitaemia)” value in series [1] (single oral dose, mice infected with P. berghei) was found to be 0.57 mg/kg. In addition, in series [21], the “MPC, chemoprotection” value fell in the range of 15 to 20 ng/mL.
In the case of `C[C@H]1[C@@H](O)O[C@@H]2O[C@@]3(C)CC[C@H]4[C@H](C)CC[C@@H]1[C@@]24OO3` [Dihydroartemsinin], the Activity % in [1] (3 mg/kg) came out at 61%; in series [1] (10 mg/kg) it was 97%; in series [1] (setting [22]), 99%. Further, the results for the Survival days in series [1] (3 mg/kg), in series [1] (10 mg/kg) and in [1] (30 mg/kg) were 7 days, 6 days and 7 days, respectively.
`OC(c1cc(C(F)(F)F)nc2c(C(F)(F)F)cccc12)C1CCCCN1` (stereo not drawn) [Mefloquine]: the Activity % in [1] (3 mg/kg) is recorded as under 40%; in series [1] (10 mg/kg), 95%. The Survival days in series [1] (3 mg/kg) is on record as 7 days; in [1] (10 mg/kg), 16 days; in series [1] (30 mg/kg), 22 days.
Consider `Cc1c2oc3c(C)ccc(C(=O)N[C@@H]4C(=O)N[C@H](C(C)C)C(=O)N5CCC[C@H]5C(=O)N(C)CC(=O)N(C)[C@@H](C(C)C)C(=O)O[C@@H]4C)c3nc-2c(C(=O)N[C@@H]2C(=O)N[C@H](C(C)C)C(=O)N3CCC[C@H]3C(=O)N(C)CC(=O)N(C)[C@@H](C(C)C)C(=O)O[C@@H]2C)c(N)c1=O` [actinomycin D] (I: T[dV]P[Sar][NMeV] / II: T[dV]P[Sar][NMeV]; ester I:1-I:C, II:1-II:C; linker I:N-II:N via Actinocin(9to1)), for which the “effect on DNA/RNA biosynthesis” value in series [18] was “significant dose-dependent reduction”.
In the case of `C[C@@H]1C[C@@H]([C@H](O)CC2CC(=O)NC(=O)C2)C(=O)[C@@H](C)C1` [cycloheximide], the “effect on DNA/RNA biosynthesis” value in series [18] was “minimal effects”.
